Reference: patent US6455541B1, “Suppression, by 5-lipoxygenase inhibitors, of bone resorption” (Board of Regents, The University of Texas System, priority 1994, dated 2002)
Where “and” joins values, the source holds several entries; their conditions need not be identical. Equal values may be shown once. Entries after “also recorded” stand apart in the source; their conditions may differ. Read-outs that look alike come from different tables or passages of the source.

Key:
neonatal mouse calvariae = experiment: Neonatal mouse (murine) calvarial assay, 45Ca release; format: cell-based
Protocol: The assay was performed as described by Gowen et al. (1983). Timed pregnant mice were injected with ^45Ca 2 days before parturition. Half-calvaria were removed from the 1-2-day-old pups and preincubated for 24 h in BGJb medium at 37° C. in a humidified atmosphere of 5% CO2 before transfer to fresh media with or without test substances for 48 h. The bones were incubated for a further 72 h and media and bones collected. Bone-resorbing activity was expressed as the percentage of the total ^45Ca released into the medium.

[1] = system: isolated avian osteoclasts; experiment: TRAP activity in isolated avian osteoclasts; format: cell-based, Gallus domesticus
Protocol: Avian osteoclasts were isolated from medullary bone of laying White Leghorn hens Gallus domesticus (Pioneer Animal Supply, Kingswheel, Ohio) as described previously by Zambonin-Zallone and Teti (1981). In brief, bone marrow suspensions from the medullary bone of femora were filtered through Nytex cloth (110 μm, t'etko, Elmsford, N.Y.), centrifuged for 5 min at 1200 rpm, and the cell pellet resuspended in 0.2% NaCl for 3 min to lyse erythrocytes. After layering the cells on 100% fetal bovine serum for 1 h, sedimented cells were further filtered through Nytex filters (55 μm). Cells were harvested, resuspended in α-minimal Eagle's medium (GIBCO) containing 10 fetal bovine serum, with penicillin (100 units/ml), streptomycin (100 μg/ml), and Ara-C, to inhibit proliferation of nonosteoclastic cells. Cells were plated in 24- or 48-well plates (Costar, Cambridge, Mass.) at 1×10^4 cells/well and incubated at 37° C. in 10% CO2 humidified air for 48 h, after which they were washed to remove nonadherent cells. When matured osteoclasts were observed experiments were begun and terminated within 48 h.
(§1) Osteoclast TRAP activity was measured using fluorescence spectroscopy as described by Chambers et al. (1987) with minor modifications. In brief, media from osteoclast cultures were harvested and stored at −70° C. until ready for assay.
(§2) The cells were washed with phosphate-buffered saline and harvested in 0.5 ml of Triton X-100 (0.05%, w/v). Aliquots of media or lysate 30 μl) were incubated with 170 μl of 2 mM methylumbelliferyl phosphate, pH 5.0, in 0.48 M acetate buffer (0.48 M sodium acetate, 0.48 M acetic acid, pH 5.0) and 30 mM tartaric acid. Samples were incubated for 30 min at 37° C. and the reaction terminated with 100 μl of stop solution containing 50 mM glycine, 50 mM EDTA, pH 10.4. Fluorescence was measured at excitation 360 nm and emission 448 nm using a fluorimeter (Fluoroskan, Flow Instruments). Enzyme activity was expressed as micromoles of methylumbelliferyl phosphate hydrolyzed/min/μg of protein and the protein content measured by the technique of Lowry et al. (1951).

[2] = system: isolated 23C6(+) human giant cells of bone; experiment: TRAP activity in isolated human giant cells; format: cell-based
Protocol: as §1, §2
Human giant cell tumors (normally discarded after surgery) were minced and passed through 1#40SS wire mesh screen, allowed to settle for 5 min, and the cell suspension above the sediment collected. […]

isolated rat osteoclasts = experiment: Disaggregated rat osteoclast pit formation assay on sperm whale dentine; format: cell-based
Protocol: (§3) Quantitation of the effects of isolated osteoclasts on calcified matrices was determined using minor modifications of the disaggregated osteoclast resorption assay as described by Boyde et al. (1984). Sperm whale dentine (0.25×7×7 mm) was prepared using a Buehler low speed diamond saw (Buehler, Lake Bluff, Ill.) followed by sonication (15 min) in several changes of distilled water. Slices were sterilized using ultraviolet light.
Neonatal Sprague-Dawley rats (2-3 days) were sacrificed by decapitation, the femurs and tibias were removed, scraped free of adherent tissue, and trimmed free of the epiphyses. The bones from one litter were combined and quickly minced using a scalpel blade in 2 ml of 199 medium and then vigorously mixed with a pipette in an 8-ml tube, allowed to settle for 10 s, and then 100 μl of the suspension was added to each well for a total of 16 wells in a 48-well microtiter plate containing sperm whale dentine (approximately four neonates are used per 16 wells). The cells were incubated at 37° C. for 30 min at which time the dentine was removed, washed in media, and placed in a fresh 48-well plate containing 250 μl of test medium.
(§4) Osteoclasts were stained for TRAP and counted and then pit numbers were counted following toluidine blue (0.1% w/v) staining by light microscopy. The plan area of matrix resorbed was quantitated using a computer-assisted morphometric program on a Bioquant System IV analysis system (R & M Biometrics, Nashville, Tenn.).
Quantitation of the effects of isolated neonatal rat osteoclasts on calcified matrices was determined using minor modifications of the disaggregated osteoclast resorption assay as described by Boyde et al (1984). Briefly rat osteoclasts isolated as described by Chambers et al. (1983) were dispersed on prewetted (AMEM plus 5% FBS) slices of sperm whale dentine. Cultures were performed in 48 well-microtiter plates in humidified air (10% CO2) at 37° C. in αMEM medium (one slice/well in 200 μl medium). Numbers of osteoclasts and resorption lacunae were quantitated as described above for the avian osteoclasts.

[3] = system: isolated 23C6+ human giant cells; experiment: Pit formation by isolated human giant cells on sperm whale dentine; format: cell-based
Protocol: as §3, §4
Human giant cell tumors (normally discarded after surgery) were minced and passed through 1#40SS wire mesh screen, allowed to settle for 5 min, and the cell suspension above the sediment collected. The cells were incubated with 23C6 monoclonal antibody that identifies the osteoclast vitronectin receptor (generously provided by Dr. Michael Horton) (1:10 dilution of hybridoma supernatant/10^6 cells) at 4° C. in serum-free medium for 30 min, after which immunomagnetic beads coated with anti-mouse IgG (Dynabead, Dynal, Inc., Great Neck, N.Y.) were added to the cell suspension. […]

C433 cells [4] = experiment: Radioimmunoassay of 5-HETE in C433-conditioned media; format: cell-based, human; conditions: +1,25-(OH)2 vitamin D3 10^−8 M, duplicate
Protocol: The radioimmunoassays for 5-HETE were purchased from Advanced Magnetics, Inc. (Cambridge, Mass.).
(§5) C433 cells were grown in 10% fetal bovine serum (Whittaker, Walkersville, Md.) 50% RPMI, 50% McCoys (Flow, McLean, Va.) until a density of 10^4 cells/ml was obtained, at which time the cells were harvested, washed, […] This conditioned medium was applied to a prewetted C18 Sep-Pak (Millipore, Waters, Milford, Mass.), and bound material was extracted using ethyl acetate. This material was dried under nitrogen and resuspended in water, it acetic acid and analyzed by high pressure measure liquid chromatography (HPLC) (Waters, Milford, Mass.) applied to a C8 semipreparative 25 cm×10 mm reverse phase column (Keystone Scientific, Inc., Bellefonte, Pa.) at 2 ml/min. The gradient was 0-100% methanol, 1% acetic acid over 60 min with 6-ml fractions collected. The fractions were dried under nitrogen, and those fractions to be assayed for osteoclast stimulating activity were stabilized with 20 μl of 10% bovine serum albumin. Fractions to be used for gas chromatography-mass spectrometric analysis were prepared for derivatization.
To confirm that C433-conditioned medium contained these 5-LO metabolites and that production was hormonally regulated, radioimmunoassays were performed for 5-HETE using commercially available kits. […]

C433 cells [5] = experiment: Production of osteoclast-stimulating activity by C433 cells (conditioned medium bioassayed for TRAP in avian osteoclasts); format: cell-based, human; conditions: flurbiprofen 10^−5 M; indomethacin 10^−6 M; nordihydroguaiaretic acid 10^−6, 10^−5 or 10^−4 M
Protocol: FIG. 3A, FIG. 3B, FIG. 3C and FIG. 3D. Chemical characterization of activity. FIG. 3A. C433-conditioned medium was treated with ultraviolet-light (UV) for 24 h or placed in a boiling water bath (100° C.) for 15 min and bioassayed. FIG. 3B. amino peptidase M (A), carboxypeptidase (C), or Pronase-CB (P) were incubated in the presence of C433-conditioned medium for 12 h at 37° C. FIG. 3C. […] The resultant conditioned medium was bioassayed for activity. FIG. 3D. […] Conditioned medium was bioassayed for induction of TRAP activity in avian osteoclasts.
as §5, with “washed, and placed in serum-free DMEM plus 10^−8 M, 1,25-(OH)2D3 for 48 h before harvest of conditioned medium.” for “washed,”

[6] = Lymphotoxin 5 × 10^−9M + NDGA 10^−5M

5-hydroxyeicosatetraenoic acid [5-HETE]
stimulation of bone resorption in neonatal mouse calvariae (in words) (neonatal mouse calvariae): stimulated bone resorption
stimulation of TRAP activity in avian osteoclasts (in words) [1]: stimulated TRAP activity
concentration of optimal stimulation of TRAP activity ([1]; 10^−8 M stimulates suboptimally): 10^−10 M
stimulation of TRAP activity ([1]; 10^−10 M, 48 h): maximally stimulated
stimulation of TRAP activity in human giant cells (in words) [2]: stimulated TRAP activity
stimulation of TRAP activity ([2]; 10^−10 M, 48 h): maximally stimulated
pit formation by isolated rat osteoclasts (in words) (isolated rat osteoclasts): caused pit formation
pit formation by human giant cells (in words) [3]: caused pit formation

C=C1/C(=C\C=C2/CCC[C@]3(C)[C@@H]([C@H](C)CCCC(C)(C)O)CC[C@@H]23)C[C@@H](O)C[C@@H]1O [1,25D3, 1,25 dihydroxyvitamin D3]
45Ca release, factor alone (Table IV) (neonatal mouse calvariae; 1,25D3 10^−10M, IL-1 1 × 10^−10M): 37.2%
45Ca release, Factor alone (Table II) (neonatal mouse calvariae; IL-1 5 × 10^−10M, TNF 2 × 10^−10M, Lymphotoxin 5 × 10^−9M, PTH 4 ng/ml, 1,25D3 10^−10M): 35.3% and 31.8% and 37.0%
5-HETE in C433-conditioned media (C433 cells [4]; 6 h): 3.36 pg/mL and 3.53 pg/mL
5-HETE in C433-conditioned media (C433 cells [4]; 12 h): 11.07 pg/mL and 11.68 pg/mL

CCCCC/C=C\C\C=C/C=C/C=C/[C@@H](SC[C@H](NC(=O)CC[C@H](N)C(=O)O)C(=O)NCC(=O)O)[C@@H](O)CCCC(=O)O [LTC4, leukotriene C4]
stimulation of pit formation ([3]; 10^−10 M): stimulated

CC(Cc1ccc(O)c(O)c1)C(C)Cc1ccc(O)c(O)c1 (stereo not drawn) [NDGA, nordihydroguaiaretic acid]
inhibition of 1,25(OH)2 vitamin D3-induced bone resorption (in words) (neonatal mouse calvariae; 1,25(OH)2 vitamin D3 as factor): no significance was observed
45Ca release, Factor + NDGA (neonatal mouse calvariae; 1,25D3 10^−10M + NDGA 10^−5M): 31.7% and 29.2% and 32.5%
% Inhibition (neonatal mouse calvariae; 1,25D3 10^−10M + NDGA 10^−5M): 19.8% and 24.1%
Ca^45 Release, LPS + NDGA (neonatal mouse calvariae; AAY4 LPS 25 μg/ml + NDGA 10^−5M): 13.6%
45Ca release, LPS + NDGA (neonatal mouse calvariae; AaY4 LPS 50 μg/ml + NDGA 10^−5M): 22.2%
inhibition of LPS-induced bone resorption (in words) (neonatal mouse calvariae; AaY4 LPS and/or WR14 LPS): significantly inhibited; also recorded: Significant inhibition
45Ca release, Factor + NDGA (neonatal mouse calvariae; IL-1 5 × 10^−10M + NDGA 10^−5M): 23.4% and 24.6%
% Inhibition (neonatal mouse calvariae; IL-1 5 × 10^−10M + NDGA 10^−5M): 32.8%
inhibition of IL-1-induced bone resorption (in words) (neonatal mouse calvariae; IL-1 as factor): significantly inhibits
45Ca release, Factor + NDGA (neonatal mouse calvariae; [6]): 26.8% and 35.5%
% Inhibition (neonatal mouse calvariae; [6]): 31.7%
inhibition at 10 µM (neonatal mouse calvariae; Mus musculus, 1,25D3 10^−10M + NDGA 10^−5M, read-out: % Inhibition): 19.6%
inhibition at 10 µM (neonatal mouse calvariae; Mus musculus, AAY4 LPS 25 μg/ml + NDGA 10^−5M, read-out: % Inhibition): 120%
inhibition at 10 µM (neonatal mouse calvariae; Mus musculus, AaY4 LPS 50 μg/ml + NDGA 10^−5M, read-out: % Inhibition): 57.2%
inhibition at 10 µM (neonatal mouse calvariae; Mus musculus, IL-1 5 × 10^−10M + NDGA 10^−5M, read-out: % Inhibition): 30%
inhibition at 10 µM (neonatal mouse calvariae; Mus musculus, Lymphotoxin 5 × 10^−9M + NDGA 10^−5M): 48.8%
inhibition at 10 µM (neonatal mouse calvariae; Mus musculus, TNF 2 × 10^−10M + NDGA 10^−5M, read-out: % Inhibition): 43.2%
inhibition at 10 µM (neonatal mouse calvariae; Mus musculus, WR14 LPS 50 ng/ml + NDGA 10^−5M, read-out: % Inhibition): 57.6%
45Ca release, Factor + NDGA (neonatal mouse calvariae; PTH 4 ng/ml + NDGA 10^−5M): 30.6% and 31.2% and 28.6%
inhibition of PTH-induced bone resorption (in words) (neonatal mouse calvariae; PTH as factor): One out of three experiments showed significant inhibition
45Ca release, Factor + NDGA (neonatal mouse calvariae; TNF 2 × 10^−10M + NDGA 10^−5M): 27.8% and 31.9%
% Inhibition (neonatal mouse calvariae; TNF 2 × 10^−10M + NDGA 10^−5M): 33.5%
inhibition of TNF-induced bone resorption (in words) (neonatal mouse calvariae; TNF as factor): significantly inhibits
% Inhibition (neonatal mouse calvariae; WR14 LPS 50 ng/ml + NDGA 10^−5M): 40.8%
inhibition of lymphotoxin-induced bone resorption (in words) (neonatal mouse calvariae; lymphotoxin as factor): significantly inhibits
NDGA inhibition of lipopolysaccharide-induced bone resorption (neonatal mouse calvariae; two different preparations of lipopolysaccharide): Greater than 50%
inhibition of PTH and PTHrP-induced bone resorption (isolated rat osteoclasts; NDGA 10^−6M, MK886 1 μg/ml, ZM 230,487 10 ng/ml, 20 hours): inhibition of the bone resorption was seen
order of inhibitory effectiveness (isolated rat osteoclasts; PTH and PTHrP-induced bone resorption, NDGA 10^−6M, MK886 1 μg/ml, ZM 230,487 10 ng/ml): ZM230487>MK886>NDGA
effect on production of C433 activity (C433 cells [5]): completely blocked
